How the values were obtained:
Assay in all cases: flow cytometry, inhibition of purified knob binding to HCE cells
Assay type in all cases: cell-based
Conditions in all cases: knob preincubated with ME0462, 1 h, 4 °C; human corneal epithelial cells
HAdV-D8/53 fiber knob = biological target: T1, HAdV-D8/53 fiber knob (Human adenovirus D8, UniProt P36845)
T1 construct: gene L5

HAdV-D54 fiber knob = biological target: T2, HAdV-D54 fiber knob (Human adenovirus 54, UniProt B9A5P2)
T2 construct: gene L5

HAdV-D37/64 fiber knob = biological target: T3, HAdV-D37/64 fiber knob (Human adenovirus D37, UniProt Q64823)
T3 construct: gene L5; N-terminal RGS-His tag kept (pQE30-Xa); E. coli M15; Ni-NTA and Q-sepharose

**Q.** Which results are given for ME0462?
**A.** % inhibition at 80 μM (HAdV-D8/53 fiber knob): 60%; % inhibition at 80 μM (HAdV-D54 fiber knob): 60%; % inhibition at 80 μM (HAdV-D37/64 fiber knob): 70%

From paper PMC6563162 (Viruses, 2019)
